Measured values from BindingDB's records for doi:10.1016/j.chembiol.2008.07.013 (University of Connecticut, 2008).

Biological target: T1, Dihydrofolate reductase (Candida glabrata (strain ATCC 2001 / BCRC 20586 / JCM 3761 / NBRC 0622 / NRRL Y-65 / CBS 138), UniProt Q6FPH0)
T1 sequence (Q6FPH0 whole entry): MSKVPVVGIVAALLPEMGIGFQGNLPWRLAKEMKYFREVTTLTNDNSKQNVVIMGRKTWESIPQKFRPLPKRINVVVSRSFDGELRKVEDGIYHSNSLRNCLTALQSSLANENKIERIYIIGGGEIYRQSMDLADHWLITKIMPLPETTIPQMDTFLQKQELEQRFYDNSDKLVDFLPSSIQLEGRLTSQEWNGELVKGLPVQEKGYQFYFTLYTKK
Test: Enzyme Inhibition Assay
Conditions: 25 °C
Source text: Enzyme inhibition assay using CgDHFR and hDHFR performed at 25 degree Celsius by monitoring the rate of enzyme-dependent NADPH oxidation at an absorbance of 340 nm over several minutes.

Structure (SMILES)	IC50 [nM]
CCc1nc(N)nc(N)c1C#CCc1cc(OC)ccc1OC [5-[3-(2,5-dimethoxyphenyl)prop-1-yn-1-yl]-6-ethylpyrimidine-2,4-diamine]	8.2
COc1cc([C@@H](O)C#Cc2c(C)nc(N)nc2N)cc(OC)c1OC [Propargyl-substituted antifolate, 9]	39
COc1cc(CC#Cc2cnc(N)nc2N)cc(OC)c1OC [JMC517532 Compound 3]	22
COc1cc([C@@H](C#Cc2c(C)nc(N)nc2N)OC)cc(OC)c1OC [JMC517532 Compound 10]	30
COc1ccc(OC)c(CC#Cc2c(C)nc(N)nc2N)c1 [Propargyl-linked, 10]	32
COc1ccc(OC)c(CC#Cc2cnc(N)nc2N)c1 [5-[3-(2,5-dimethoxyphenyl)prop-1-yn-1-yl]pyrimidine-2,4-diamine]	21
COc1cc(C(C)C#Cc2c(C)nc(N)nc2N)cc(OC)c1OC (configuration not stated) [Propargyl-substituted antifolate, 8]	25
